Test results reported in US5032599A, “N-(pyrrol-l-yl)pyridinamines” (Hoechst-Roussel Pharmaceuticals Inc., priority 1988, dated 1991).
Where a name gives a salt, the structure may show the parent alone.

Test system: Scopolamine Induced Memory Deficit
Experiment: Dark Avoidance Assay (reversal of scopolamine induced memory deficit)
Format: in vivo
Conditions: mice, retest after 24 hours
Description: Dark Avoidance Asssay In this assay mice are tested for their ability to remember an unpleasant stimulus for a period of 24 hours. A mouse is placed in a chamber that contains a dark compartment; a strong incandescent light drives it to the dark compartment, where an electric shock is administered through metal plates on the floor. The animal is removed from the testing apparatus and tested again, 24 hours later, for the ability to remember the electric shock. If scolopamine, an anticholinergic that is known to cause memory impairment, is administered before an animal's initial exposure to the test chamber, the animal re-enters the dark compartment shortly after being placed in the test chamber 24 hours later. This effect of scopolamine is blocked by an active test compound, resulting in a greater interval before re-entry into the dark compartment. The results for an active compound are expressed as the percent of a group of animals in which the effect of scopolamine is blocked, as manifested by an increased interval between being placed in the test chamber and re-entering the dark compartment.

SMILES | % of Animals With Scopolamine Induced Memory Deficit Reversed (2.5 mg/kg by body weight) | % of Animals With Scopolamine Induced Memory Deficit Reversed (5.0 mg/kg by body weight) | also measured
CN(c1ccncc1)n1cccc1C=O [1-[N-Methyl-N-(4-pyridinyl)]aminopyrrole-2-carboxaldehyde maleate] |  |  | % of Animals With Scopolamine Induced Memory Deficit Reversed (1.25 mg/kg by body weight): 60%
c1ccn(Nc2ccncc2)c1 [N-(1H-Pyrrol-1-yl)-4-pyridinamine] |  |  | % of Animals With Scopolamine Induced Memory Deficit Reversed (0.63 mg/kg by body weight): 21%
CCN(c1ccncc1)n1cccc1Cl.Cl [N-(2-Chloro-1H-pyrrol-1-yl)-N-ethyl-4-pyridinamine hydrochloride] | 33% |  | 
CN(c1ccncc1)n1cccc1.Cl [N-Methyl-N-(1H-pyrrol-1-yl)-4-pyridinamine hydrochloride] | 43% |  | 
CC[C@@H]1C(=O)OC[C@@H]1Cc1cncn1C [Pilocarpine, reference compound] |  | 23% | 
CC(O)c1cccn1N(C)c1ccncc1 (stereo not drawn) [α-methyl-1-[[N-(4-pyridinyl)-N-methyl]amino]-1H-pyrrole-2-methanol maleate] |  | 19% | 
